Tests used:
caspase-3/7 = experiment: Enzymatic activity of caspases-3/7 in treated MDA-MB-231 cells; assay type: cell-based, human; details: MDA-MB-231 cells treated at 10 μM
[1] = tested on: human metastatic breast cancer line, MDA-MB-231; details: different experimental conditions; cited from earlier work

SMILES: CN[C@@H](C)C(=O)N[C@@H](CSCc1ccc(-c2ccc(CSC[C@H](NC(=O)[C@H](C)NC)C(=O)N3CCC[C@H]3C(=O)NC(c3ccccc3)c3ccccc3)cc2)cc1)C(=O)N1CCC[C@H]1C(=O)NC(c1ccccc1)c1ccccc1 [Compound D13]
- potency relative to monomer M11 in caspase-3/7 activation (caspase-3/7): ~ 2.5 ×

SMILES: CN[C@@H](C)C(=O)N[C@H]1CCCC[C@H]2CC[C@@H](C(=O)N[C@@H](c3ccccc3)c3cn(CCCCc4ccc(CCCCn5cc([C@@H](NC(=O)[C@@H]6CC[C@@H]7CCCC[C@H](NC(=O)[C@H](C)NC)C(=O)N76)c6ccccc6)nn5)cc4)nn3)N2C1=O [SM-164]
- in vivo activity profile compared with M11, in words [1]: markedly improved activity profiles
